In brackets after ≈: the same amount, converted by molar mass.
Key:
[1] = Cytotoxicity against mouse NIH/3T3 cells after 3 days by MTT assay; assay type: toxicity, NIH3T3
[2] = Cytotoxicity against human Lu1 cells after 3 days by MTT assay; assay type: functional, cell-based; settings: Lu1, 72 h
[3] = Cytotoxicity against human HepG2 cells after 3 days by MTT assay; assay type: functional, cell-based; settings: HepG2, 72 h
[4] = Cytotoxicity against human MCF7 cells after 3 days by MTT assay; assay type: functional, cell-based; settings: MCF7, 72 h
[5] = Cytotoxicity against mouse […] cells after 3 days by MTT assay; assay type: functional, cell-based; settings: 72 h
[6] = Cytotoxicity against human SW480 cells after 3 days by MTT assay; assay type: functional, cell-based; settings: SW480, 72 h
[7] = Cytotoxicity against human KB cells after 3 days by MTT assay; assay type: functional, cell-based; settings: 72 h
Bacillus subtilis = experiment: Antibacterial activity against Bacillus subtilis ATCC 11774 after 18 to 20 hrs by two-fold microbroth dilution method; assay type: functional
Staphylococcus aureus [8] = experiment: Antibacterial activity against Staphylococcus aureus ATCC 11632 after 18 to 20 hrs by two-fold microbroth dilution method; assay type: functional
[9] = system: Staphylococcus epidermidis; experiment: Antibacterial activity against Staphylococcus epidermidis ATCC 12228 after 18 to 20 hrs by two-fold microbroth dilution method; assay type: functional
Klebsiella aerogenes = experiment: Antibacterial activity against Enterobacter aerogenes ATCC 13048 after 18 to 20 hrs by two-fold microbroth dilution method; assay type: functional
Escherichia coli = experiment: Antibacterial activity against Escherichia coli ATCC 25922 after 18 to 20 hrs by two-fold microbroth dilution method; assay type: functional
Klebsiella pneumoniae = experiment: Antibacterial activity against Klebsiella pneumoniae ATCC 4352 after 18 to 20 hrs by two-fold microbroth dilution method; assay type: functional
Pseudomonas aeruginosa = experiment: Antibacterial activity against Pseudomonas aeruginosa […] after 18 to 20 hrs by two-fold microbroth dilution method; assay type: functional
Staphylococcus aureus [10] = experiment: Antibacterial activity against methicillin-resistant Staphylococcus aureus 198-1 after 18 to 20 hrs by two-fold microbroth dilution method; assay type: functional
Staphylococcus aureus [11] = experiment: Antibacterial activity against methicillin-resistant Staphylococcus aureus 198-2 after 18 to 20 hrs by two-fold microbroth dilution method; assay type: functional
Staphylococcus aureus [12] = experiment: Antibacterial activity against methicillin-resistant Staphylococcus aureus 198-3 after 18 to 20 hrs by two-fold microbroth dilution method; assay type: functional
Aspergillus niger = experiment: Antifungal activity against Aspergillus niger 439 after 72 hrs by agar dilution method; assay type: functional; settings: Aspergillus niger, 439, 72 h
Candida albicans = experiment: Antifungal activity against Candida albicans ATCC 7754 after 72 hrs by agar dilution method; assay type: functional; settings: ATCC 7754, 72 h
[13] = Antifungal activity against Fusarium oxysporum M42 after 72 hrs by agar dilution method; assay type: functional
[14] = Antifungal activity against Saccharomyces cerevisiae SH20 after 72 hrs by agar dilution method; assay type: functional
Rattus norvegicus [15] = experiment: (§1) Antioxidant activity in CCL4-intoxicated Wistar albino rat assessed as liver cytosolic superoxide dismutase activity per mg protein at 100 mg/kg, ip administered for 7 consecutive days after DL-alpha-tocopherol acetate treatment followed by CCL4 dosing measured after 24 hrs by xanthine based assay (reference value: 5.27 +/- 0.22 U); assay type: functional
Rattus norvegicus [16] = experiment: as §1, with “glutathione peroxidase” for “superoxide dismutase”, “H2O2” for “xanthine”, “spectrophotometric analysis” for “assay”, “0.28” for “5.27”, “0.01” for “0.22”; assay type: functional
Rattus norvegicus [17] = experiment: as §1, with “catalase” for “superoxide dismutase”, “H2O2” for “xanthine”, “220.15” for “5.27”, “11.43” for “0.22”; assay type: functional

Row | Structure (SMILES) | IC50 at 3 days [1] | IC50 [2] | IC50 [3] | MIC (Bacillus subtilis) | MIC (Staphylococcus aureus [8]) | MIC [9] | MIC (Klebsiella aerogenes) | MIC (Escherichia coli) | MIC (Klebsiella pneumoniae) | MIC (Pseudomonas aeruginosa) | MIC (Staphylococcus aureus [10]) | MIC (Staphylococcus aureus [11]) | MIC (Staphylococcus aureus [12]) | MIC (Aspergillus niger) | MIC (Candida albicans) | MIC [13] | MIC [14] | Activity (Rattus norvegicus [15]) | Activity (Rattus norvegicus [16]) | Activity (Rattus norvegicus [17]) | further results
1 | Cc1c2ccncc2c(C)c2c1[nH]c1ccccc12 [ELLIPTECINE] | 0.32 µM | 1.39 µM | 1.95 µM | – | – | – | – | – | – | – | – | – | – | – | – | – | – | – | – | – | IC50 [4]: 0.53 µM; IC50 [5]: 1.27 µM; IC50 [6]: 0.75 µM; IC50 [7]: 0.52 µM
2 | CC(=O)OC[C@H]1O[C@@H](NC(=S)N/N=C2/C(=O)Nc3c(Br)cc(Br)cc32)[C@H](OC(C)=O)[C@@H](OC(C)=O)[C@@H]1OC(C)=O | 1.53 µM | 5.53 µM | 8.41 µM | 1.56 µM (≈ 1.11 µg/mL) | 1.56 µM (≈ 1.11 µg/mL) | 1.56 µM (≈ 1.11 µg/mL) | 50 µM (≈ 35.4 µg/mL) | 50 µM (≈ 35.4 µg/mL) | 50 µM (≈ 35.4 µg/mL) | 50 µM (≈ 35.4 µg/mL) | 0.78 µM (≈ 0.553 µg/mL) | 0.78 µM (≈ 0.553 µg/mL) | 0.78 µM (≈ 0.553 µg/mL) | 3.12 µM (≈ 2.21 µg/mL) | 6.25 µM (≈ 4.43 µg/mL) | 12.5 µM (≈ 8.85 µg/mL) | 6.25 µM (≈ 4.43 µg/mL) | 10.89 U | 0.31 U | 397.53 U | IC50 [4]: 2.75 µM; IC50 [5]: 18.4 µM; IC50 [6]: 4.75 µM; IC50 [7]: 12.8 µM
3 | CCCN1C(=O)/C(=N/NC(=S)N[C@@H]2O[C@H](COC(C)=O)[C@@H](OC(C)=O)[C@H](OC(C)=O)[C@H]2OC(C)=O)c2ccccc21 | – | – | – | 100 µM (≈ 59.3 µg/mL) | 100 µM (≈ 59.3 µg/mL) | 100 µM (≈ 59.3 µg/mL) | 12.5 µM (≈ 7.41 µg/mL) | 12.5 µM (≈ 7.41 µg/mL) | 12.5 µM (≈ 7.41 µg/mL) | 12.5 µM (≈ 7.41 µg/mL) | 100 µM (≈ 59.3 µg/mL) | 100 µM (≈ 59.3 µg/mL) | 100 µM (≈ 59.3 µg/mL) | 50 µM (≈ 29.6 µg/mL) | 400 µM (≈ 237 µg/mL) | 100 µM (≈ 59.3 µg/mL) | 400 µM (≈ 237 µg/mL) | 9.77 U | 0.84 U | 367.63 U | –
4 | CC(=O)OC[C@H]1O[C@@H](NC(=S)N/N=C2/C(=O)N(CC(C)C)c3ccccc32)[C@H](OC(C)=O)[C@@H](OC(C)=O)[C@@H]1OC(C)=O | – | – | – | 100 µM (≈ 60.7 µg/mL) | 100 µM (≈ 60.7 µg/mL) | 100 µM (≈ 60.7 µg/mL) | 12.5 µM (≈ 7.58 µg/mL) | 12.5 µM (≈ 7.58 µg/mL) | 12.5 µM (≈ 7.58 µg/mL) | 12.5 µM (≈ 7.58 µg/mL) | 100 µM (≈ 60.7 µg/mL) | 100 µM (≈ 60.7 µg/mL) | 100 µM (≈ 60.7 µg/mL) | 100 µM (≈ 60.7 µg/mL) | 100 µM (≈ 60.7 µg/mL) | 100 µM (≈ 60.7 µg/mL) | 100 µM (≈ 60.7 µg/mL) | 9.88 U | 0.91 U | 375.45 U | –
5 | CC(=O)OC[C@H]1O[C@@H](NC(=S)N/N=C2/C(=O)Nc3ccc(C(C)C)cc32)[C@H](OC(C)=O)[C@@H](OC(C)=O)[C@@H]1OC(C)=O | – | – | – | 25 µM (≈ 14.8 µg/mL) | 12.5 µM (≈ 7.41 µg/mL) | 12.5 µM (≈ 7.41 µg/mL) | 50 µM (≈ 29.6 µg/mL) | 50 µM (≈ 29.6 µg/mL) | 25 µM (≈ 14.8 µg/mL) | 25 µM (≈ 14.8 µg/mL) | 12.5 µM (≈ 7.41 µg/mL) | 12.5 µM (≈ 7.41 µg/mL) | 12.5 µM (≈ 7.41 µg/mL) | 100 µM (≈ 59.3 µg/mL) | 100 µM (≈ 59.3 µg/mL) | 25 µM (≈ 14.8 µg/mL) | 50 µM (≈ 29.6 µg/mL) | 5.82 U | 1.75 U | 260.61 U | –

Source: ChEMBL document CHEMBL3872214, “Synthesis and evaluation of in vivo antioxidant, in vitro antibacterial, MRSA and antifungal activity of novel substituted isatin N-(2,3,4,6-tetra-O-acetyl-β-d-glucopyranosyl)thiosemicarbazones” (Eur J Med Chem, 2016)
